The subject of experiment [1] is T-47D breast cancer cell line. As to the kind of experiment: Cell growth inhibition, SRB assay, extended panel. The class given is cell-based. The note with it: Homo sapiens, T47D, read-out: GI50 Range T-47D. As to the method: (§1) Breast cancer cells (MCF-7, MDA-MB-468 and HCC1954), colon cancer cells (SW620) and lung cancer cells (A549), together with human mammary epithelial primary cells (HMEC) were seeded (1000 to 4000 per 80 μl per well depending on the cell growth rate) into 96-well plates 24 hours before compound overlay. Compounds were prepared as 10 mM stock solutions in 100% DMSO which were diluted with DMEM (Dulbecco's Modified Eagle's Medium) cell growth Medium (Invitrogen, Canada) containing 10% FBS (Fetal Bovine Serum) to concentrations ranging from 50 nM to 250 μM. Aliquots (20 μl) from each concentration were overlaid to 80 μl of the pre-seeded cells in the 96-plates to make final concentrations of 10 nM to 50 μM. The cells were cultured for 5 days before the Sulforhodamine B (SRB) assay was performed to determine the compound's cell growth inhibition activity.
(§2) Sulforhodamine B (Sigma, Canada) is a water-soluble dye that binds to the basic amino acids of cellular proteins. Thus, colorimetric measurement of the bound dye provides an estimate of the total protein mass that is related to the cell number. The cells are fixed in situ by gently aspirating off the culture media and adding 50 μl ice cold 10% Trichloroacetic Acid (TCA) per well and incubated at 4° C. for 30-60 min. The plates are washed with water five times and allowed to air dry for 5 min. Addition of 50 μl 0.4% (w/v) SRB solution in 1% (v/v) acetic acid to each well and incubatation for […] at RT completes the staining reaction. Following staining, plates are washed four times with 1% acetic acid to remove unbound dye and then allowed to air dry for 5 min. The stain is solubilized with 100 μl of 10 mM Tris pH 10.5 per well. Absorbance is read at 570 nm.
(§3) The percentage (%) of relative growth inhibition was calculated by comparing to DMSO-treated only cells (100%). GI50's were determined for compounds with cytotoxic activity. The GI50 was calculated using GraphPad PRISM software (GraphPad Software, Inc., USA).
(§4) The SRB assay described above was used to assay test compounds against the extended panel (Table 6).

The test system of experiment [2] is OVCAR-3 ovarian cancer cell line. As to the kind of experiment: Cell growth inhibition, SRB assay, extended panel. The note with it: Homo sapiens, OVCAR-3, read-out: GI50 Range OVCAR-3. The class given is cell-based. As to the method: as §1, §2, §3, §4
In experiment [3] the test system is H358 lung cancer cell line. The experiment is described as follows: Cell growth inhibition, SRB assay, extended panel. It is filed as cell-based. The conditions noted are these: Homo sapiens, NCI-H358, read-out: GI50 Range H358. As to the method:
as §1, §2, §3, §4

The test system of experiment [4] is SK-N-SH brain cancer cell line. As to the kind of experiment: Cell growth inhibition, SRB assay, extended panel. It is filed as cell-based. The conditions noted are these: Homo sapiens, read-out: GI50 Range SK-N-SH. How it is done: as §1, §2, §3, §4
Experiment [5] relates to 184A1 immortalized breast cell line. The experiment is described as follows: Cell growth inhibition, SRB assay, extended panel. It is filed as cell-based. The note with it: 184A1, read-out: GI50 Range 184A1. How it is done: as §1, §2, §3, §4
The subject of experiment [6] is HCT116 p53^+/+ colon cancer cell line. The experiment is described as follows: Cell growth inhibition, SRB assay, extended panel. The conditions noted are these: Homo sapiens, HCT-116, read-out: GI50 Range HCT116 p53^+/+. It is filed as cell-based. As to the method: as §1, §2, §3
(§5) In addition to the cell lines tested as described above, selected compounds have been assayed against an extended panel. These include: breast cancer cell lines (T-47D, MDA-MB-231, Hs578T, 8T-474, SKBr-3 and HCC1954), a lung cancer cell line (H358), brain cancer cell lines (A172, Hs683 and SK-N-SH), colon cancer cell lines (Colo 205, HCT-15, HCT116 p53^+/+ and HCT116 p53^−/−), ovarian cancer cell lines (OVCAR-3, SK-OV-3 and SW626), a melanoma cell line (518A2), a prostate cancer cell line (PC-3) and an immortalized breast cell line (184A1). The SRB assay described above was used to assay test compounds against the extended panel (Table 6).

The subject of experiment [7] is HCT116 p53^−/− colon cancer cell line. As to the kind of experiment: Cell growth inhibition, SRB assay, extended panel. The class given is cell-based. The note with it: Homo sapiens, HCT-116, read-out: GI50 Range HCT116 p53^−/−. How it is done:
as §1, §2, §3, §5

Experiment [8] relates to HCT116 p53 negative cells. As to the method: (§6) Breast cancer cells were seeded at various concentrations, ranging from 1×10^5 to 2.5×10^5 per well according to cell growth rate, into 6-well plates 24 hours before siRNA and/or compound treatment. Each 10 mM stock solution in 100% DMSO of the compounds was diluted with Opti-MEM I Reduced-Serum Medium (Invitrogen, Canada) and added to the cells to the stated final concentrations. Control cells received 0.001% DMSO alone. Where indicated, 40 nM PTEN siRNAs (siPTEN) (QIAGEN, Canada; sense sequence: 5′-[…]-3′) or 40 nM control siRNA (siCTRL) (QIAGEN, Canada) were transfected into cells using Lipofectamine 2000 according to the manufacturer's protocol (Invitrogen, Canada). Prior to analysis, cells were trypsinized, washed in 1× phosphate-buffered saline (PBS) and centrifuged. […] All samples were read in a FACSCalibur flow cytometer (Becton, Dickinson and Company), and data analyzed using FloJo software (Tree Star, Inc.).
(§7) To explore if PTEN status may be a contributing factor in determining if PLK4 inhibitor treatment induces a cell death response in cancer cells, a test of whether reducing the levels of endogenous PTEN would sensitize HCT116 cells (either p53 wild-type or negative) to PLK4 compound-induced death (FIG. 7) was performed. […] After two days of inhibitor treatment, the percentage of sub-G1 cells was measured by cell cycle analysis.

Experiment [9] has as its system HCT116 p53 wild-type cells. As to the method:
as §6, §7

Values joined by “and” are separate entries in the source; they are usually repeats but may differ in a detail not shown here. Equal values may be shown once. Bounds are passed on as bounds.

Experimental findings from US8933070B2, “Methods of targeting PTEN mutant diseases and compositions therefor” (University Health Network, priority 2010, dated 2015) are described below.

As for `COc1ccc2c(c1)/C(=C\c1ccc3c(/C=C/c4ccc(N5CCN(C)CC5)nc4)n[nH]c3c1)C(=O)N2` [Compound 3], the GI50 in experiment [1], in experiment [2], in experiment [3], in experiment [4], in experiment [5] and in [6] was under 5 µM in each case. The GI50 in experiment [7] is under 5 µM.
`COc1ccc2c(c1)[C@@]1(C[C@@H]1c1ccc3c(-c4ccc(N5CCN(C)CC5)nc4)n[nH]c3c1)C(=O)N2` (racemic) [Compound 2]: the “percentage of sub-G1 cells” value in experiment [8] was 5.4% and 10.3%; in [9], 7.1% and 15.9%.
